Experimental data from US6632429B1, “Methods for treating pervasive development disorders” (priority 1999, dated 2003).
No end group written: not given here.

What was measured:
[1] = test system: children diagnosed as having autism; experiment: Experiment 1: Fecal Chymotrypsin Test after secretin infusion; type: in vivo, human (children); settings: each of 16 autistic children; approximately one week after first secretin infusion, 1 U/kg IV
Description: (§1) In this experiment, 16 children diagnosed as having autism were administered the following Fecal Chymotrypsin Test in accordance with an embodiment of the invention. First, approximately 2 grams of stool were collected from each child and placed in a sterile container (although it is to be understood that any quantity of stool may be collected, as 2 grams of stool is not a required amount). Each stool sample was then analyzed using, e.g., an enzymatic photospectrometry analysis as is known by those skilled in the art, to determine the level of fecal chymotrypsin in the stool. Although the enzymatic photospectrophotometry process is preferred, any suitable conventional method may be used for measuring the fecal chymotrypsin levels. The measured chymotrypsin levels of the 16 autistic children are illustrated in FIG. 13.
After determining the chymotrypsin levels of the stools, each of these levels were compared with threshold chymotrypsin levels to determine if the child was likely to benefit from secretin administration. […]
The results of Experiment 1 are illustrated in FIGS. 1-14. For instance, approximately one week after the first secretin infusion, the fecal chymotrypsin level of each of the 16 autistic children was measured again. […]

[2] = test system: autistic children with abnormal fecal chymotrypsin levels; experiment: Experiment 2: fecal chymotrypsin levels during 6 months of secretin administration; type: in vivo, human (children); settings: of 37 children, 6 months post-secretin administration
Description: as §1
After determining the chymotrypsin levels of the stools, each of these levels were compared with threshold chymotrypsin levels to determine if the child was likely to benefit from secretin administration. By way of example, with the fecal chymotrypsin tests of the stool samples being performed at 30° C. normal levels of chymotrypsin are deemed to lie above 8.4 U/gram, whereas pathologically abnormal levels are deemed to lie below 4.2 U/gram. In addition, chymotrypsin levels between 8.4 U/gram and 4.2 U/gram are considered equivocal, and further testing of the individual's fecal chymotrypsin levels over a period of time should be performed.
A preferred secretin infusion process includes the initial step of prepping an arm of the candidate child with an IV injection of saline. A test dose of 1 U of Secretin-Ferring is then administered to the child. […]
In this experiment, 37 autistic children with abnormal fecal chymotrypsin levels were administered secretin over the course of 6 months using the secretin infusion process described above. Their fecal chymotrypsin (FC) levels were measured weekly using the fecal chymotrypsin test described above.

[3] = test system: children diagnosed with Autism; settings: secretin given as diagnostic procedure during upper gastrointestinal endoscopy (Horvath et al. 1998); cited from earlier work
[4] = test system: children diagnosed as having autism; experiment: Experiment 1: CARS (Childhood Autism Rating Scale) test pre/post secretin; type: in vivo, human (children); settings: 16 autistic children
Description: Upon determining that a given child was likely to benefit from secretin administration based on the results of the fecal chymotrypsin test, the child was administered a CARS (Childhood Autism Rating Scale) test prior to being scheduled for secretin infusion.
For each of the 16 autistic children tested, a preferred secretin infusion process according to the present invention was performed involving the administering of 1 U/kg of body weight of Secretin-Ferring for a period of nine months at intervals of approximately 6 weeks. In addition, another CARS test was administered to each of the 16 autistic children 3 weeks post secretin administration to determine if their autism had changed post infusion.
A preferred secretin infusion process includes the initial step of prepping an arm of the candidate child with an IV injection of saline. A test dose of 1 U of Secretin-Ferring is then administered to the child. Approximately one minute after infusion, the child is examined for signs of allergic reaction including rash, increased heart rate, and increase of blood pressure. […] Subsequently, each child receives a 1U/kg of body weight infusion of Secretin-Ferring approximately every 6 weeks for 9 months. It is to be understood that any commercially available form of secretin may be used. […]

secretin (HSDGTFTSELSRLRDSARLQRLLQGLV; ends and bridges not checked; UniProt P63298 33-59, looked up) [gastrointestinal peptide hormone]
fecal chymotrypsin level post-secretin administration compared with pre-secretin [1]: increased | # Autistic Children w/Equivocal FC levels ([2]; pre-secretin 0): 2 | # Autistic Children w/normal FC levels ([2]; pre-secretin 0): 34 | # Autistic Children w/Abnormal FC levels ([2]; pre-secretin 37): 1 | symptoms associated with Autism after secretin administration [3]: ameliorating the symptoms | CARS component scores (all except fear) ([4]; 3 weeks post infusion): improvement | CARS scores, overall change ([4]; approximately 3 weeks after first secretin administration vs pre-secretin): overall decrease
